The values that follow come from ChEMBL document CHEMBL4665621, “The discovery of VU0652957 (VU2957, Valiglurax): SAR and DMPK challenges en route to an mGlu PAM development candidate” (Bioorg Med Chem Lett, 2019).

Series [1] deals with T1, Metabotropic glutamate receptor 4 (Homo sapiens, UniProt Q14833). The series is described as follows: Positive allosteric modulator activity at human mGlu4 receptor/Gqi5 in presence of EC20 glutamate by calcium mobilization assay. The class given is functional. In general terms: Calcium assays in cells follow changes in intracellular calcium, usually with a dye or a luminescent sensor.
T1 sequence (Q14833 whole entry): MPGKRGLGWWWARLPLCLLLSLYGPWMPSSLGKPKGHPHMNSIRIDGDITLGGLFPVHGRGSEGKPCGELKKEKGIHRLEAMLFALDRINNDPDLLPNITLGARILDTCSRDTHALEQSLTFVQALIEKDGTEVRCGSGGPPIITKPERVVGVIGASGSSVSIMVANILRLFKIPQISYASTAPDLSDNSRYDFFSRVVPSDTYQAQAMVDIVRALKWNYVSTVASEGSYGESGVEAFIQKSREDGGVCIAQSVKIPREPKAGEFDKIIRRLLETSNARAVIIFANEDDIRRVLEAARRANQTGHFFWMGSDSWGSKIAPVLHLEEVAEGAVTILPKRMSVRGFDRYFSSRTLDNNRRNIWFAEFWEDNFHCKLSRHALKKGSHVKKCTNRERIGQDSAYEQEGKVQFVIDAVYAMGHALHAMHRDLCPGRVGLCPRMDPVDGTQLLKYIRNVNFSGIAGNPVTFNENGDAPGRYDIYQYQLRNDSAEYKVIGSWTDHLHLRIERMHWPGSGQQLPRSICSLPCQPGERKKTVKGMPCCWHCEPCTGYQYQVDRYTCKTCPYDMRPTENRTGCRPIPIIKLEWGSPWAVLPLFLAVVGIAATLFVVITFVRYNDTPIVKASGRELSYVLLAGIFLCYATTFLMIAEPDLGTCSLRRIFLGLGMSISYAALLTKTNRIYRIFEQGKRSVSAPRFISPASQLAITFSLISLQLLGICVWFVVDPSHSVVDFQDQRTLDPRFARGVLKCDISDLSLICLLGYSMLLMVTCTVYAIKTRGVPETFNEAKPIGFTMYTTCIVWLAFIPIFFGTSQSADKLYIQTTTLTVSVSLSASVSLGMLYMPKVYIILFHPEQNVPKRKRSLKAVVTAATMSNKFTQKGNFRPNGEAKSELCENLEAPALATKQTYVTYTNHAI

The target of series [2] is T1, Metabotropic glutamate receptor 4. In words: Positive allosteric modulator activity at human mGlu4 receptor/Gqi5 assessed as maximum activity at 30 uM by calcium mobilization assay relative to glutamic acid. The class given is functional. The note with it: filed as positive allosteric modulator.
Series [3] deals with Rattus norvegicus. In words: Reversal of haloperidol-induced catalepsy in rat assessed as reduction in catalepsy at 3 mg/kg, po dosed along with 1.5 mg/kg haloperidol relative to untreated control. Details: scale not given: the % may be the effect or the level left. Format: functional.
Series [4] can be described thus: Brain to plasma partition coefficient, Kp of the compound in Sprague-Dawley rat at 0.20 to 0.25 mg/kg, iv cassette dose measured at 0.25 hrs. Format: ADME, organism-based. The following applies: dose 0.20-0.25 mg/kg.
The target of series [5] is Metabotropic glutamate receptor 4 (Rattus norvegicus, UniProt P31423). The series is described as follows: Positive allosteric modulator activity at rat mGlu4 receptor/Gqi5 in presence of EC20 glutamate by calcium mobilization assay. The class given is functional.
Sequence of Metabotropic glutamate receptor 4 (Rattus norvegicus, UniProt P31423) (P31423 whole entry): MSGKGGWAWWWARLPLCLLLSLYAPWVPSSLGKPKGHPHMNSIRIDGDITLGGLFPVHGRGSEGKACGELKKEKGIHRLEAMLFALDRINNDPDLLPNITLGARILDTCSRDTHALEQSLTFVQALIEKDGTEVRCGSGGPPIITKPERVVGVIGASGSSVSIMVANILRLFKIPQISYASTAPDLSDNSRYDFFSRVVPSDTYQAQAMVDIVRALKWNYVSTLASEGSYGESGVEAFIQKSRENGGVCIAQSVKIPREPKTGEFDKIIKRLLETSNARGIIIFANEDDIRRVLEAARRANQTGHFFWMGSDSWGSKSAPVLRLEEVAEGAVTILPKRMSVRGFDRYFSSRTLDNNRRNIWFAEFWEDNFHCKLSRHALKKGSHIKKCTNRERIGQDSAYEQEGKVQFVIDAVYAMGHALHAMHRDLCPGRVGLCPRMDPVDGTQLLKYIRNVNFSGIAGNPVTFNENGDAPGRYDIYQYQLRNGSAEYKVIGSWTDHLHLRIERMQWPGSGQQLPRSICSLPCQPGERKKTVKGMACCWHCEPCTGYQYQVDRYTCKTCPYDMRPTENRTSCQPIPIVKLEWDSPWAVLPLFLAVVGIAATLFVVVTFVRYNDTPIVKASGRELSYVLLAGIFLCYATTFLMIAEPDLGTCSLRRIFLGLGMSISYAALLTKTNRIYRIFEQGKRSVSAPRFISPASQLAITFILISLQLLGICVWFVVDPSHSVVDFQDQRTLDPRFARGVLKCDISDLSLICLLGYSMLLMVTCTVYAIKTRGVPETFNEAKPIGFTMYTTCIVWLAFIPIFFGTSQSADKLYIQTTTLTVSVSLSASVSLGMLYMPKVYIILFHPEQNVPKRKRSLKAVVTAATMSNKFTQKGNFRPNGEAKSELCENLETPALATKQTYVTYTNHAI
Series [6] concerns the target Metabotropic glutamate receptor 4 (Rattus norvegicus) (UniProt P31423). In words: Positive allosteric modulator activity at rat mGlu4 receptor/Gqi5 assessed as maximum activity by calcium mobilization assay relative to glutamic acid. The class given is functional. The note with it: filed as positive allosteric modulator.
In series [7] the target is Cytochrome P450 2C19 (Homo sapiens, UniProt P33261). In words: Inhibition of CYP2C19 (unknown origin). The class given is ADME.
Sequence of Cytochrome P450 2C19 (P33261 whole entry): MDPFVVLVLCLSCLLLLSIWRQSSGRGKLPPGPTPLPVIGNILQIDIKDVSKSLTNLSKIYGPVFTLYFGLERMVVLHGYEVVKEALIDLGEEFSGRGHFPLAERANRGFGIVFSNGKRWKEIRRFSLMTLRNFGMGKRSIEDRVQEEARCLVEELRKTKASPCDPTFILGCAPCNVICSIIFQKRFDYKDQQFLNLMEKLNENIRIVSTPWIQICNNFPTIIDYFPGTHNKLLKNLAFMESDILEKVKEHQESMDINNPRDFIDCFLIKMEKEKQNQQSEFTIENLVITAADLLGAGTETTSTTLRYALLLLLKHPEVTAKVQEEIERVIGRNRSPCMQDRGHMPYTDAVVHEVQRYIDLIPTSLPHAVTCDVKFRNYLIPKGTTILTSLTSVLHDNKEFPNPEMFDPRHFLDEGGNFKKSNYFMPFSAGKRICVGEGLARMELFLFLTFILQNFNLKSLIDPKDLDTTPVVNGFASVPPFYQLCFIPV
Series [8] concerns Rattus norvegicus. The series is described as follows: Reversal of haloperidol-induced catalepsy in po dosed rat assessed as minimum effective dose. Format: functional. The following applies: read-out: MED.
Series [9] can be described thus: Protein binding in rat plasma assessed as unbound fraction. Format: ADME, cell-free.
The nature of series [10]: Protein binding in human plasma assessed as unbound fraction. Format: ADME, cell-free.
The nature of series [11]: Fraction unbound in rat brain homogenate. Format: ADME, tissue-based.
Series [12] addresses T2, Cytochrome P450 1A2 (Homo sapiens, UniProt P05177).
T2 sequence (P05177 whole entry): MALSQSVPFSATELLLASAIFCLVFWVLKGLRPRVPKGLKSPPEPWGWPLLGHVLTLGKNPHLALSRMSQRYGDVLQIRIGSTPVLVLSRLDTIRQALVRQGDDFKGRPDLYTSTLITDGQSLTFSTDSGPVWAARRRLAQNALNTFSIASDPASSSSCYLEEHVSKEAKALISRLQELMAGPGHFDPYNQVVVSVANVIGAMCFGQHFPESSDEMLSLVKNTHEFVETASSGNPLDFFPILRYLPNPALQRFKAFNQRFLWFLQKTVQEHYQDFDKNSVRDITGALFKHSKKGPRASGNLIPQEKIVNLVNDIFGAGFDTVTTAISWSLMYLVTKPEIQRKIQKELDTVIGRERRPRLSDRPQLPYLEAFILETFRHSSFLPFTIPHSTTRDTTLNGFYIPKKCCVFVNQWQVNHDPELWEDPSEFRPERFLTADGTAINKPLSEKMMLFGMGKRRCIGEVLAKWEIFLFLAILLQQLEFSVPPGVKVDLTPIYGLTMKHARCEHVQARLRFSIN
The series is described as follows: Inhibition of CYP1A2 (unknown origin). The class given is ADME.

Series [13] concerns the target Cytochrome P450 2C9 (Homo sapiens, UniProt P11712). The series is described as follows: Inhibition of CYP2C9 (unknown origin). Format: ADME.
The target in series [14] is Cytochrome P450 2D6 (Homo sapiens, UniProt P10635). In words: Inhibition of CYP2D6 (unknown origin). Format: ADME.
Sequence of Cytochrome P450 2D6 (P10635 whole entry): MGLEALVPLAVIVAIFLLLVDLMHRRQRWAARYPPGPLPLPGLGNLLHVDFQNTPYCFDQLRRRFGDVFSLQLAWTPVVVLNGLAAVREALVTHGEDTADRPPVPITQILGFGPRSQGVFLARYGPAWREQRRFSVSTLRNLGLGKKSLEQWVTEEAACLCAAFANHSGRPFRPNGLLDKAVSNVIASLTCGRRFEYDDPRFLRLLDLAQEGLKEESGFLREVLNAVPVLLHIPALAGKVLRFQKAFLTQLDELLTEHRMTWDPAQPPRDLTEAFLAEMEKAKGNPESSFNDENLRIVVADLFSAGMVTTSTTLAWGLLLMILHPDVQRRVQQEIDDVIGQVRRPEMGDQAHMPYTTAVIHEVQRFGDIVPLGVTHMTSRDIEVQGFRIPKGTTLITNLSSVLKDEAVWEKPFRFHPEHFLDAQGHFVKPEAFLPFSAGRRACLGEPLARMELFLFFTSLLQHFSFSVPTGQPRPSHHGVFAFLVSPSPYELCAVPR
In series [15] the target is Cytochrome P450 3A4 (Homo sapiens, UniProt P08684). In words: Inhibition of CYP3A4 (unknown origin). Format: ADME.
Sequence of Cytochrome P450 3A4 (P08684 whole entry): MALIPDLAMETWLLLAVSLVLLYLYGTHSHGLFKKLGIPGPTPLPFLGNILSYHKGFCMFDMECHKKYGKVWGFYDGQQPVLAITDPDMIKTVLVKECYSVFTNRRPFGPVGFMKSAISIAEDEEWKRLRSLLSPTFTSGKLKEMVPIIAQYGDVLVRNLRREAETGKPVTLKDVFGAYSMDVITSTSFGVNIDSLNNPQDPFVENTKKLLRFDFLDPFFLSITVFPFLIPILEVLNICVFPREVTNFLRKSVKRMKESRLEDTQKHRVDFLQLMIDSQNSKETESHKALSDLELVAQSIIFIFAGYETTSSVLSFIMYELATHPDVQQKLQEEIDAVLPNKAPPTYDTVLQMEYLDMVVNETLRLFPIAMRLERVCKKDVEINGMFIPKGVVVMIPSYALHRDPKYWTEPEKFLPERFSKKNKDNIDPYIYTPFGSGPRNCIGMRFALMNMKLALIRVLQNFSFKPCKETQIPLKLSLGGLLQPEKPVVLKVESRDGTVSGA
Series [16] in a line: Hepatic clearance in human. Format: ADME.
Series [17] can be described thus: Half life in rat. The class given is ADME. The following applies: in vivo.
A short description of series [18]: Volume of distribution at steady state in rat. The class given is ADME. The note with it: in vivo.

Sequence of Cytochrome P450 2C9 (P11712 whole entry): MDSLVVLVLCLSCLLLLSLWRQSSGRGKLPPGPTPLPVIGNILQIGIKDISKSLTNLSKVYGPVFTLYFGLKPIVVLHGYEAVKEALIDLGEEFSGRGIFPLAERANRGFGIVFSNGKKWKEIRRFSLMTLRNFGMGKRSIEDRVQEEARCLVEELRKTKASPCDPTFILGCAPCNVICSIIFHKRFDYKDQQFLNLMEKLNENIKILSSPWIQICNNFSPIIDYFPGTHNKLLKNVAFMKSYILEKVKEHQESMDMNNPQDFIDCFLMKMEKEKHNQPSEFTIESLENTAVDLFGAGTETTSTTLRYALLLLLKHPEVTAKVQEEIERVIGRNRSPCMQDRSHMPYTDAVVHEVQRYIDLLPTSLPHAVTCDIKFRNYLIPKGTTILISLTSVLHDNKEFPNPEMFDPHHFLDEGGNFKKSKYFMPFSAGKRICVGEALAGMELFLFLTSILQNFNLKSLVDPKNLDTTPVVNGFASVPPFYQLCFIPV
Sequence of Metabotropic glutamate receptor 4 (Rattus norvegicus) (P31423 whole entry): as the sequence (P31423 whole entry) above

What is called EC50 is the concentration needed to bring the measured effect to its halfway point. For orientation: Kp means tissue or fluid exposure divided by exposure in the circulation. The Emax is the maximal effect, on the per cent scale that the assay sets. The IC50 is the concentration that gives 50% inhibition. On to `FC(F)(F)c1nccc2cc(Nc3n[nH]c4ncccc34)ccc12`, for which the EC50 in series [1] was found to be 65 nM; in [5] it was 197 nM. Moreover, the figures for the Activity in [2] and in [3] were 93% and 50%, respectively. This molecule came in with a Kp at 0.25 h in series [4] of 1.5. The Emax in series [6] came to 123%. Further, the IC50 in [7] was found to be 12500 nM. Further, the minimal effective dose in series [8] amounted to 1 mg/kg.
For `c1cnc2c(Nc3ccc4c(-n5cccn5)nccc4c3)n[nH]c2c1`, the EC50 in series [1] was 63 nM. In addition, in series [2], the Activity worked out at 85%. Besides, the Fu in [9] was 0.046 fraction; in series [10], 0.09 fraction; in series [11], 0.029%. Moreover, the IC50 in series [12] was found to be 1500 nM; in series [13], 7300 nM; in series [14] it was 7200 nM; in series [15], 13000 nM. Further, the CLH in series [16] is 35.7 mL/min/kg. The same molecule yielded a Kp at 0.25 h in series [4] of 1.37.
With `c1cnc2c(Nc3ccc4c(N5CCCC5)nccc4c3)n[nH]c2c1`, the EC50 in series [1] worked out at 1690 nM. Also, in series [2], the Activity was found to be 54%.
`c1cnc2c(Nc3ccc4nccnc4c3)n[nH]c2c1`: the EC50 in [1] is above 10000 nM.
As to `O=c1c2ccc(Nc3n[nH]c4cccnc34)cc2ccn1CC1CCC1`, the EC50 in [1] is 653 nM. Further, the Activity in [2] was determined as 31%.
For `c1cnc2cc(Nc3n[nH]c4cccnc34)ccc2c1`, in series [1], the EC50 was above 10000 nM.
With `Cc1ccn(-c2nccc3cc(Nc4n[nH]c5cccnc45)ccc23)n1`, the EC50 in [1] amounted to 237 nM. For the same molecule, in [2], the Activity turned out to be 84%.
On to `c1cnc2c(Nc3ccc4cnccc4n3)n[nH]c2c1`, for which the EC50 in [1] is above 10000 nM.
`c1cnc2c(Nc3ccc4c(NC5CCC5)nccc4c3)n[nH]c2c1`: in series [1], the EC50 came out at 869 nM. Besides, in [2], the Activity is 71%.
Regarding `FC(F)c1nccc2cc(Nc3n[nH]c4cccnc34)ccc12`, the EC50 in [1] is 8 nM. Further, the Activity in series [2] was 67%; in [3], 45%. Also, the Fu in series [9] is given as 0.032 fraction; in [10], 0.03 fraction. Besides, the IC50 in [12] is 300 nM; in [13] it was 30000 nM; in series [14], above 30000 nM; in series [15], above 30000 nM. Moreover, the Kp at 0.25 h in series [4] stood at 2.2.
Consider `CC(C)Cn1ccc2cc(Nc3n[nH]c4cccnc34)ccc2c1=O`, for which, in series [1], the EC50 was found to be 685 nM. The Activity in series [2] came out at 24%.
As to `c1ccc(CNc2nccc3cc(Nc4n[nH]c5cccnc45)ccc23)cc1`, the EC50 in series [1] came to 1360 nM. In [2], the Activity worked out at 58%.
For orientation: fraction unbound means the share of the substance not bound to proteins or other matrix. Usually Vdss stands for a proportionality between amount in the body and measured concentration, not a real space. As to `c1cnc2c(Nc3ccc4cnccc4c3)n[nH]c2c1`, the EC50 in series [1] is 76 nM. Besides, the Activity in series [2] came out at 114%. Moreover, in series [9], the fraction unbound was determined as 0.046. In addition, the Fu in series [10] was 0.092 fraction; in [11], 0.029%. Besides, the IC50 in [12] came to 150 nM; in [13], 1350 nM; in series [14], 3980 nM; in series [15], 440 nM. The same molecule yielded a t1/2 in series [17] of 10.2 h. In addition, the Vdss in series [18] worked out at 4.88 L/kg.
Turning to `Cn1nccc1-c1nccc2cc(Nc3n[nH]c4cccnc34)ccc12`, the EC50 in series [1] stood at 45 nM. In addition, the Activity in series [2] is 78%. Also, the Fu in series [9] came out at 0.088 fraction; in [10] it was 0.096 fraction. In [16], this molecule came in with a CLH of 11.5 mL/min/kg. For the same molecule, the Kp at 0.25 h in series [4] was determined as 1.6.
Consider `c1ccc2cc(Nc3n[nH]c4cccnc34)ccc2c1`, for which the EC50 in [1] was 403 nM. Further, in series [2], the Activity came out at 79%.
As for `CCN(CC)c1nccc2cc(Nc3n[nH]c4cccnc34)ccc12`, the EC50 in series [1] stood at 164 nM. Besides, in series [2], the Activity was found to be 95%.
The like results for `Cn1ccc2cc(Nc3n[nH]c4cccnc34)ccc2c1=O` were, in that order, above 10000 nM and 30%.
As for `c1cnc2c(Nc3ccc4ccncc4c3)n[nH]c2c1`, the EC50 in [1] is above 10000 nM.
Take `Cn1nc(C(F)(F)F)cc1-c1nccc2cc(Nc3n[nH]c4cccnc34)ccc12`: the EC50 in series [1] came out at 132 nM. The Activity in series [2] turned out to be 84%.
`CCc1nccc2cc(Nc3n[nH]c4cccnc34)ccc12`: in [1], the EC50 is 45 nM. The Activity in series [2] turned out to be 64%. Moreover, the IC50 in [12] was below 1000 nM.
Regarding `FC(F)(F)C1CCCCN1c1nccc2cc(Nc3n[nH]c4cccnc34)ccc12` (stereo not given), the EC50 in series [1] is 306 nM. In addition, in series [2], the Activity amounted to 57%.
By half-life is commonly meant the time in which the quantity being followed falls by half. As for `FC(F)(F)c1nccc2cc(Nc3n[nH]c4nccnc34)ccc12`, the EC50 in series [1] amounted to 51 nM. Moreover, the Activity in series [2] stood at 83%; in series [3] it was 24%. For the same molecule, the half-life in series [17] is below 1 h.
For the molecule `CC(c1nccc2cc(Nc3n[nH]c4cccnc34)ccc12)C(F)(F)F` (stereo not given), the EC50 in [1] came out at 36 nM. In addition, in series [2], the Activity was 100%. In series [4], this molecule registered a Kp at 0.25 h of 2.2.
Take `FC1(F)CCN(c2nccc3cc(Nc4n[nH]c5cccnc45)ccc23)C1`: the EC50 in series [1] was found to be 249 nM. In [2], the Activity was determined as 75%.
With `COCCNc1nccc2cc(Nc3n[nH]c4cccnc34)ccc12`, in series [1], the EC50 was found to be 121 nM. In addition, in [2], the Activity turned out to be 89%.
The like results for `c1cnc2ccc(Nc3n[nH]c4cccnc34)cc2c1` were, in that order, 732 nM and 42%.
The matching figures for `Cc1cc(C)n(-c2nccc3cc(Nc4n[nH]c5cccnc45)ccc23)n1`: 726 nM and 70%.
Turning to `O=c1[nH]ccc2cc(Nc3n[nH]c4cccnc34)ccc12`, the EC50 in series [1] is 264 nM. Besides, the Activity in [2] amounted to 77%. Further, the IC50 in series [12] was 3300 nM; in series [13], above 30000 nM; in [15], above 30000 nM.
Regarding `c1cnc2c(Nc3ccc4c(N5CCCCC5)nccc4c3)n[nH]c2c1`, the EC50 in series [1] worked out at 215 nM. Further, the Activity in series [2] stood at 74%.
Regarding `FC(F)(F)c1nccc2cc(Nc3n[nH]c4cccnc34)ccc12`, the EC50 in series [1] is 18 nM. Further, the Activity in [2] came out at 77%; in series [3], 24%. This molecule also gave a half-life in series [17] below 1 h. Also, the Kp at 0.25 h in series [4] was found to be 4.3.
For `c1cnc2c(Nc3ccc4ncncc4c3)n[nH]c2c1`, the EC50 in series [1] was above 10000 nM.
In the case of `O=c1c2ccc(Nc3n[nH]c4cccnc34)cc2ccn1C1CCCC1`, the EC50 in series [1] amounted to 1730 nM. In addition, in series [2], the Activity amounted to 22%.
Regarding `c1cnc2c(Nc3ccc4c(C5CC5)nccc4c3)n[nH]c2c1`, the EC50 in series [1] turned out to be 71 nM. For the same molecule, in series [2], the Activity is 86%. This molecule also displayed an IC50 in series [12] below 1000 nM.
As for `CN1CCN(c2nccc3cc(Nc4n[nH]c5cccnc45)ccc23)CC1`, the EC50 in series [1] amounted to 1290 nM. In series [2], the Activity was 72%.
